Measurements: patent publication US11529394B2, “Polypeptide conjugates and methods of uses” (BEIJING QL BIOPHARMACEUTICAL CO., LTD., priority 2020, dated 2022)

Key:
[1] = endogenous GLP-1; cited from earlier work
[2] = Body weight loss in C57 lean mice after single subcutaneous dose; format: in vivo, C57BL/6 mice
Description: Method: 10 week old male C57BL/6 mice were injected subcutaneously with protein once on Day 1. Body weight was measured daily and five animals were used for each treatment group. […] The area under the curve for body weight loss (%) from 0 until 8 days (AUC ΔBW 0-8d) was calculated.

GLP-1 receptor = GLP-1 receptor (Homo sapiens, UniProt P43220); settings: cited from earlier work
db/db mice = test: Non-fasting glucose in db/db mice after single subcutaneous dose; format: in vivo; settings: non-fasting delta blood glucose
Description: Method: 10 weeks old male db/db mice were injected subcutaneously with protein once. […] Delta blood glucose is glucose subtracted by baseline level. […] The area under the curve for delta blood glucose from 0 until 192 hours (AUCΔBG 0-192 h) was calculated.

human serum albumin = human serum albumin (Homo sapiens, UniProt P02768); test: Human serum albumin binding by surface plasmon resonance (Biacore 8K); settings: human serum albumin on CM5 chip, SPR
Chain of human serum albumin (P02768 25-609): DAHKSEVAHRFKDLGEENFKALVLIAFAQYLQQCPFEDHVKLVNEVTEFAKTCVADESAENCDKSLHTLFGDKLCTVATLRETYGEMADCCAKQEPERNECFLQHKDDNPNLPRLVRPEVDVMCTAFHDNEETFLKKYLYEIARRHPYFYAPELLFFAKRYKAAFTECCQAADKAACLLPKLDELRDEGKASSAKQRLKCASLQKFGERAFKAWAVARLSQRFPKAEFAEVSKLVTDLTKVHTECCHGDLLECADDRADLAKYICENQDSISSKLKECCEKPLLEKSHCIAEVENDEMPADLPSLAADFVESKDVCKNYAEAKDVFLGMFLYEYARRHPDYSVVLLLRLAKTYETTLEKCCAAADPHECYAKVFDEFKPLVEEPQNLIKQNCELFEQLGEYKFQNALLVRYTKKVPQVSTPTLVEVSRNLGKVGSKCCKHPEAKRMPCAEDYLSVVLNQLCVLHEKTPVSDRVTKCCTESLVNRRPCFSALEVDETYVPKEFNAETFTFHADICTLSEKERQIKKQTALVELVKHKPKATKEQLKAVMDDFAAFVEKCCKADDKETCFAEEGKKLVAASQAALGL
Description: Method: Binding of molecules to serum albumin was characterized by surface plastron resonance in a Biacore 8K instrument, Serum albumin from different species was covalently bound to CM5 sensor chips surface until 4000 RU was reached. The chip was blocked by 1M ethanolamine with flowrate of 10 μL/min for 420 s, Each molecule sample was diluted and injected at a flow rate of 30 μL/min to allow for binding to chip-bound albumin for 120 s and for dissociation for 300 s. Binding buffer without molecule was sent over the chip at the flow rate of 20 seconds to allow spontaneous dissociation of bound molecule for 30 seconds.

Chain of GLP-1 receptor (P43220 24-463, species assumed): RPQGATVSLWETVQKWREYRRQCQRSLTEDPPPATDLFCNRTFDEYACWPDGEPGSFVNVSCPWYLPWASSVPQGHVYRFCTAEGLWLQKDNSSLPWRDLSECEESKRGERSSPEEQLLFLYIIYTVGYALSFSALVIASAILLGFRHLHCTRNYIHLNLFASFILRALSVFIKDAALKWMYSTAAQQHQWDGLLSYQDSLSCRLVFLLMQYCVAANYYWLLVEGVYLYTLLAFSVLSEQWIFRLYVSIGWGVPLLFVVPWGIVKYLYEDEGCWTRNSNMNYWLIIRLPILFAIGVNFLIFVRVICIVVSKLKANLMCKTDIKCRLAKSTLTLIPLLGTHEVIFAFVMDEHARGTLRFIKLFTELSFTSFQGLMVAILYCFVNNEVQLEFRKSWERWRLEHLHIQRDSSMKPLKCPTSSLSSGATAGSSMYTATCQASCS

| Substance | half-life [1] | AUC ΔBW 0-8 d ([2]; Study 1 (FIG. 1A and 1B), 3 nmol/kg s.c. once) | AUC ΔBW 0-8 d ([2]; Study 1 (FIG. 1A and 1B), 10 nmol/kg s.c. once) | AUC ΔBW 0-8 d ([2]; Study 1 (FIG. 1A and 1B), 30 nmol/kg s.c. once) | AUC ΔBW 0-8 d ([2]; Study 2 (FIG. 1C), 30 nmol/kg s.c. once) | AUC ΔBW 0-8 d ([2]; Study 3 (FIG. 1D), 30 nmol/kg s.c. once) | loss in GLP-1 receptor binding in presence of human serum albumin (HSA) relative to unconjugated counterpart (GLP-1 receptor) | AUC ΔBG 0-192 h (db/db mice; 3 nmol/kg s.c. once) | AUC ΔBG 0-192 h (db/db mice; 10 nmol/kg s.c. once) | AUC ΔBG 0-192 h (db/db mice; 30 nmol/kg s.c. once) | Rmax (human serum albumin) |
| --- | --- | --- | --- | --- | --- | --- | --- | --- | --- | --- | --- |
| GLP-1: endogenous Glucagon-Like Peptide-1, 30 or 31 amino acid peptide fragment (7-36 or 7-37) | approximately 2 minutes |  |  |  |  |  |  |  |  |  |  |
| semaglutide [reference compound] |  | −0.6 day* % | −11.1 day* % | −12.7 day* % | −9.3 day* % | −13.2 day* % | 939 fold | -317.0 mmol·h/L | -583.4 mmol·h/L | -527.1 mmol·h/L | 55.2 RU |
